Test results: US20170050966A1, “INHIBITING THE TRANSIENT RECEPTOR POTENTIAL A1 ION CHANNEL” (HYDRA BIOSCIENCES, INC., priority 2014, published 2017)
In brackets after ≈: the same amount, converted by molar mass.

What was measured:
[1] = Solubility in fasted-state simulated intestinal fluid (FaSSIF); type: physicochemical; settings: thermodynamic from solid, pH 6.5, 25° C., read-out: Solubility in the FaSSIF model
Method: Solubility was also determined in a fasted-state simulated intestinal fluid (FaSSIF) assay. Briefly, Compound 2 was added to the FaSSIF medium (bile salts, NaOH (0.420 g), NaH2PO4 (3.438 g), NaCl (6.186 g), pH to 6.5, at 25° C., and brought to a 1 L volume) agitated for 30 hours and sampled, centrifuged, and analyzed by UPLC. Solubility in the FaSSIF model was determined to be 1.19 mg/ml.

[2] = Solubility in simulated gastrointestinal fluid (SGF); type: physicochemical; settings: simulated gastric fluid, thermodynamic from solid, HCl 0.1N at 25° C.
Method: Solubility was further assessed in simulated gastrointestinal fluid (SGF) (HCl 0.1N at 25° C.). Briefly, compound was agitated for 30 hours and sampled, centrifuged, and analyzed by UPLC.

mTRPA1 = target: T1, mTRPA1 (Mus musculus, UniProt Q8BLA8); assay: TRPA1 IC50, whole-cell patch clamp; type: cell-based; settings: mTRPA1, 10 μM AITC; read-out: IC50 Inward current
T1 construct: expressed in transfected cells
T1 sequence (Q8BLA8 whole entry): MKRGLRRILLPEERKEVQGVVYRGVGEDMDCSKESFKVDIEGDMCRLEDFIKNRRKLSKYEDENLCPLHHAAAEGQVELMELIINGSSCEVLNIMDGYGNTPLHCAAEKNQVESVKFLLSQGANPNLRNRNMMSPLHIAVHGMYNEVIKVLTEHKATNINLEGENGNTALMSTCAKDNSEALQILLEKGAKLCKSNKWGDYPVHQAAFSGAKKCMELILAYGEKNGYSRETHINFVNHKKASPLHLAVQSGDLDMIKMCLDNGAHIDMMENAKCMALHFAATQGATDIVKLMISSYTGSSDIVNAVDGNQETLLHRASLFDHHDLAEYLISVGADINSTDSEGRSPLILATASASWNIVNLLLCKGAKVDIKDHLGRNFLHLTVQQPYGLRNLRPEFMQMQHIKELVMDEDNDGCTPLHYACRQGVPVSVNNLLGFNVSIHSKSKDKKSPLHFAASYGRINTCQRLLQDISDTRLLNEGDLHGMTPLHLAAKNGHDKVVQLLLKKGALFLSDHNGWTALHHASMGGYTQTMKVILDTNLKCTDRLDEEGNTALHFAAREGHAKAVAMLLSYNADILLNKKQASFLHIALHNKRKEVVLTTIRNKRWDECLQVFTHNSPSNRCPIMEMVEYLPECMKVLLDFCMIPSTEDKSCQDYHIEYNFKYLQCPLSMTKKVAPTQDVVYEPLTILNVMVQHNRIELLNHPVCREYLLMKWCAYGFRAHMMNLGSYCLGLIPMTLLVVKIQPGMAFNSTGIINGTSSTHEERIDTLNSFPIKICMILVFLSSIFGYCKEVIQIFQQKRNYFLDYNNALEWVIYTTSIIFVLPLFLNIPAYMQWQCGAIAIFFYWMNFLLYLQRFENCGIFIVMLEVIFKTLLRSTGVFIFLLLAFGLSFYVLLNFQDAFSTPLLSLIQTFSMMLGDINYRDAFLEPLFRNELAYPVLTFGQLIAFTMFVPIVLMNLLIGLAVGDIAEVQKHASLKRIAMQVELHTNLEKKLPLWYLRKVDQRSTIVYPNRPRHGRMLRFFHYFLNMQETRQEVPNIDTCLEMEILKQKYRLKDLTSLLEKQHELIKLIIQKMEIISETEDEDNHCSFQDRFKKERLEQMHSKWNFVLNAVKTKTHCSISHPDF

sheepTRPA1 = sheepTRPA1 (Ovis aries, UniProt A0ACI6QTQ3); assay: TRPA1 IC50, whole-cell patch clamp; type: cell-based, Sheep; settings: sheepTRPA1, 20 μM AITC; read-out: IC50 Inward current
Sequence of sheepTRPA1 (A0ACI6QTQ3 entry or part of it): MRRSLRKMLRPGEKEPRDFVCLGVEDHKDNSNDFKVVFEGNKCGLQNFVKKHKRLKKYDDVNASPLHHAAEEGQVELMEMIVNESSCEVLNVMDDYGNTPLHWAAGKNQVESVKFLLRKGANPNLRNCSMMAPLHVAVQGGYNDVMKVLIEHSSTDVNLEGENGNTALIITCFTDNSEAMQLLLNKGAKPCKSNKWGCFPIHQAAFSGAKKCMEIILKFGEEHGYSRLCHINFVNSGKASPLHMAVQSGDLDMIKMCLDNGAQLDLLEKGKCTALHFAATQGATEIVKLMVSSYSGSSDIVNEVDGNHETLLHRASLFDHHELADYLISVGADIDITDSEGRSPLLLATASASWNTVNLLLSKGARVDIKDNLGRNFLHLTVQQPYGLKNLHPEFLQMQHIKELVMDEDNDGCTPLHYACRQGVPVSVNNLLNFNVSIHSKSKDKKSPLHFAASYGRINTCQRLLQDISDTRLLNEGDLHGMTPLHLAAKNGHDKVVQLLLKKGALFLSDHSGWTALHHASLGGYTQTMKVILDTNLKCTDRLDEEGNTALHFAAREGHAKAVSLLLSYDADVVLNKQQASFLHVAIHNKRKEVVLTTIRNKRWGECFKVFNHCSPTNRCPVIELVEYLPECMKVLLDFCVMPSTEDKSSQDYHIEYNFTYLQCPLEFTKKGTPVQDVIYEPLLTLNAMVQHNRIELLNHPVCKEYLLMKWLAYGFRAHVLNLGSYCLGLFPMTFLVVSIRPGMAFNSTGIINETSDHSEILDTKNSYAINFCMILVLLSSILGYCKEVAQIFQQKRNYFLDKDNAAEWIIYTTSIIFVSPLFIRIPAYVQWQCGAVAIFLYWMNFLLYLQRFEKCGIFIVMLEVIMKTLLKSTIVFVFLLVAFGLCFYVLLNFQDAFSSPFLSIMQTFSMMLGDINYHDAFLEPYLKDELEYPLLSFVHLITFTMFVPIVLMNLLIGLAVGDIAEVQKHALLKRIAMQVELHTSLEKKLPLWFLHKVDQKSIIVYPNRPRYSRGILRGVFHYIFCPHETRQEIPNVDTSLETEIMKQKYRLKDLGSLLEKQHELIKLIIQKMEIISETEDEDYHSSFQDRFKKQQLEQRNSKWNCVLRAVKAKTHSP

[3] = Plasma levels in CFA cold hypersensitivity study; type: in vivo, rat
Excerpt: Table 16 summarizes the average plasma levels of Compound 2 and Compound A. Approximately dose proportional exposures of Compound 2 were observed throughout the dose range tested. Decreased plasma binding of Compound 2 indicates an improved bioavailability of Compound 2 to the subjects over Compound A.

[4] = CYP450 reaction phenotyping in human liver microsomes; type: in vitro ADME; settings: human liver microsomes with and without selective CYP450 inhibitors
Method: CYP450 reaction phenotyping of Compound 2 was conducted by incubating the test article with human liver microsomes in the presence and absence of selective CYP450 inhibitors.

beagle dogs = assay: Hepatotoxicity safety profile, serum biomarkers; type: in vivo; settings: for ALP d-5 / ALT d-5 / AST d-5 / GGT d-5: day -5 before dosing; for ALP d5 / ALT d5 / AST d5 / GGT d5: day 5
Method: Compound 2 in vehicle (0.5% methylcellulose [400 cps] in deionized water) was administered orally once daily for five consecutive days by gavage once to 3 groups of non-naïve male and female beagle dogs. Each group received one dose level. […] […] The dose volume was 10 ml/kg for all groups. Hepatoxicity was measured via the serum biomarkers of alanine aminotransferease [ALT], aspartate aminotransferase [AST], alkaline phosphastase [ALP] and gamma-glutamyl transferase [GGT] which represent hepatotoxicity or bile duct injury.

cynomolgus monkeys = assay: Hepatotoxicity safety profile, serum biomarkers; type: in vivo; settings: for ALP d28 / ALT d28 / AST d28 / GGT d28: day 28
Method: Compound 2 in the vehicle (0.5% methylcellulose, 400 cps) was administered via nasogastric intubation once daily for 28 or 29 consecutive days to 4 groups of cynomolgus monkeys. Each group received one dose level. Dosage levels were 10, 30, 100, and 300 mg/kg/day per group. […] The dosage volume was 10 ml/kg for all groups. Hepatoxicity was measured via the serum biomarkers of alanine aminotransferease [ALT], aspartate aminotransferase [AST], alkaline phosphastase [ALP] and gamma-glutamyl transferase [GGT] which represent hepatotoxicity or bile duct injury.

[5] = Storage stability of anhydrous solid crystalline form (XRPD); type: physicochemical; settings: Form B, ambient conditions for three months
Excerpt: After storage of this solid crystalline form at ambient conditions for three months, the sample was subjected to XRPD analysis again.

CYP2C8 = CYP2C8 (Homo sapiens, UniProt P10632); assay: in vitro; settings: probe Amodiaquine
Sequence of CYP2C8 (P10632 whole entry): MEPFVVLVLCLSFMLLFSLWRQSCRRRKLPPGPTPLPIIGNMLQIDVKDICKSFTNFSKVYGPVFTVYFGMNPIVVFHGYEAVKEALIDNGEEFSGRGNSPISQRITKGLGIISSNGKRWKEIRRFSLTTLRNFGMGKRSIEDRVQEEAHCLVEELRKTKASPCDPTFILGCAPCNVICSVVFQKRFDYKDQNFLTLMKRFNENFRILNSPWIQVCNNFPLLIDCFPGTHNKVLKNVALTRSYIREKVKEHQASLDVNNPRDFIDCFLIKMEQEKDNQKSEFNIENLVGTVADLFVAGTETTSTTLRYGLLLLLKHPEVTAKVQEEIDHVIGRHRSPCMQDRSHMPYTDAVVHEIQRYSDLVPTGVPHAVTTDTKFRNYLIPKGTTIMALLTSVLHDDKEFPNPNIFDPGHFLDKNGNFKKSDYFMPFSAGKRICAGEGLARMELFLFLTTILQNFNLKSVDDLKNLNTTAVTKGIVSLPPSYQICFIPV

CYP2C19 = CYP2C19 (Homo sapiens, UniProt P33261); assay: in vitro; settings: probe Mephenytoin
Sequence of CYP2C19 (P33261 whole entry): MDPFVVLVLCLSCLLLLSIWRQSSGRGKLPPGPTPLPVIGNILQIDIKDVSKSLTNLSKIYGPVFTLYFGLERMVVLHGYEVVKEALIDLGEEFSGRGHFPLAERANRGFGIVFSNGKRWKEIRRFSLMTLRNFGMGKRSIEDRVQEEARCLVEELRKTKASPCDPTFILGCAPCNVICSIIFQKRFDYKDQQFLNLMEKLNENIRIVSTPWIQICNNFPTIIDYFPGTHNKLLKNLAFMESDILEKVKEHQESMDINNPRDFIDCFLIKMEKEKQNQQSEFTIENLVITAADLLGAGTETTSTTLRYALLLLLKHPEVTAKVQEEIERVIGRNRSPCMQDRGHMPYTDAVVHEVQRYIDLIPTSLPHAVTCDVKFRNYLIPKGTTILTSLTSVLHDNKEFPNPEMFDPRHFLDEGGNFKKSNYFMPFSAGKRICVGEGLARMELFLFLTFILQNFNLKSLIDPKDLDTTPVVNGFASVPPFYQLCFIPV

## C[C@@H](C(=O)Nc1ccnc(-c2cnc(N3CCC[C@H]3C(F)(F)F)nc2)n1)n1cnc2c1c(=O)n(C)c(=O)n2C [Compound 2, (S)-2-(1,3-dimethyl-2,6-dioxo-2,3-dihydro-1H-purin-7(6H)-yl)-N-(2′-((S)-2-(trifluoromethyl)pyrrolidin-1-yl)-[2,5′-bipyrimidin]-4-yl)propanamide]
[1]
  solubility at 30 h: 1190 µg/mL (≈ 2190 µM)
[2]
  solubility at 30 h: 1050 µg/mL (≈ 1930 µM)
mTRPA1
  IC50: 26.6 ± 3.3 nM
sheepTRPA1
  IC50: 3280 ± 640 nM
[3]; 0.3 mg/kg PO
  PLASMA: 70 ± 11 ng/mL
[3]; 1 mg/kg PO
  PLASMA: 265 ± 56 ng/mL
[3]; 3 mg/kg PO
  PLASMA: 800 ± 160 ng/mL
[3]; 10 mg/kg PO
  PLASMA: 2780 ± 425 ng/mL
[4]
  CYP450 isozymes involved in in vitro metabolism: involved mainly the CYP3A4 isozymes
Beagle dogs; 30 mg/kg group
  ALP d-5: 93.0 U/L
  ALT d-5: 19.0 U/L
  AST d-5: 20.0 U/L
  GGT d-5: 0.0 U/L
Beagle dogs; 30 mg/kg oral once daily
  ALP d5: 143.0 U/L
  ALT d5: 20.0 U/L
  AST d5: 22.0 U/L
  GGT d5: 0.0 U/L
Beagle dogs; 100 mg/kg group
  ALP d-5: 120.0 U/L
  ALT d-5: 21.0 U/L
  AST d-5: 20.0 U/L
  GGT d-5: 0.0 U/L
Beagle dogs; 100 mg/kg oral once daily
  ALP d5: 141.0 U/L
  ALT d5: 19.0 U/L
  AST d5: 21.0 U/L
  GGT d5: 0.5 U/L
Beagle dogs; 300 mg/kg group
  ALP d-5: 118.0 U/L
  ALT d-5: 28.0 U/L
  AST d-5: 22.0 U/L
  GGT d-5: 0.0 U/L
Beagle dogs; 300 mg/kg oral once daily
  ALP d5: 101.0 U/L
  ALT d5: 21.0 U/L
  AST d5: 22.0 U/L
  GGT d5: 0.0 U/L
Beagle dogs; beagle dogs, oral once daily for five days
  serum biomarkers of hepatotoxicity (ALT, AST, ALP, GGT): did not elevate the serum biomarkers up to and including a dose of 300 mg/kg
Cynomolgus monkeys; 10 mg/kg/day nasogastric
  ALP d28: 744.0 U/L
  ALT d28: 87.0 U/L
  AST d28: 126.0 U/L
  GGT d28: 64.0 U/L
Cynomolgus monkeys; 30 mg/kg/day nasogastric
  ALP d28: 461.0 U/L
  ALT d28: 50.0 U/L
  AST d28: 72.0 U/L
  GGT d28: 49.0 U/L
Cynomolgus monkeys; 100 mg/kg/day nasogastric
  ALP d28: 532.0 U/L
  ALT d28: 61.0 U/L
  AST d28: 70.0 U/L
  GGT d28: 53.7 U/L
Cynomolgus monkeys; 300 mg/kg/day nasogastric
  ALP d28: 441.0 U/L
  ALT d28: 67.0 U/L
  AST d28: 134.0 U/L
  GGT d28: 54.8 U/L
Cynomolgus monkeys; cynomolgus monkeys, once daily for 28 or 29 days
  serum biomarkers of hepatotoxicity (ALT, AST, ALP, GGT): did not elevate the serum biomarkers up to and including a dose of 300 mg/kg
[5]
  XRPD pattern after storage: matches the original indexed pattern
CYP2C8
  inhibition at 10 µM: 3.2%
CYP2C19
  inhibition at 10 µM: 37.1%
